Data on six molecules can be found in patent publication US12655107B2 (The United States of America, as represented by the …, priority 2018, dated 2026).

The structures appear in SMILES notation. Where two headings read alike, the source gives them in different places.

One series concerns DU145. Put plainly: MTT cytotoxicity assay, DU145. It is filed as cell-based, human. To be noted: 72 h, Table 1b, read-out: GI50 (μM) DU145. The procedure:
(§1) Cytotoxicity Assays. […] The cells were incubated with the tested compounds for 72 hours in a five-dose assay ranging from 0.01 to 100 μM concentration. After drug treatments, MTT solution was added to test the percentage growth of tumor cells.
(§2) The compounds were incubated with the cells for 72 hours in a five-dose assay ranging from 0.01 to 100 μM concentration. At the end of the incubation, the MTT solution was added to test the percentage growth of tumor cells.
(§3) For the drug treatment experiments, the cancer cells were treated with the compounds (predissolved in DMSO) at a five-dose assay ranging from 0.01 to 100 μM concentration. […] After 4 h incubation, the formazan crystal formed in the well was dissolved with […] of DMSO for optical density reading at 570 nm. The GI50 value was calculated by nonlinear regression analysis (GraphPad Prism).

A further series concerns CCRF-CEM. Nature of the series: MTT cytotoxicity assay, CCRF-CEM. Format: cell-based, human. To be noted: 72 h, Table 1b. How it is done: as §1, §3
On the technique in general: Tetrazolium dyes change colour on reduction, which living cells bring about.

In the next series the test system is HCT116. Put plainly: MTT cytotoxicity assay, HCT116. Format: cell-based, human. To be noted: 72 h, Table 1b, read-out: GI50 (μM) HCT116. How it is done:
as §1, §2, §3

The subject of another series is A549. Put plainly: MTT cytotoxicity assay, A549. It is filed as cell-based, human. How it is done: as §1, §2, §3
In another series the test system is Huh7. Put plainly: MTT cytotoxicity assay, Huh7. Format: cell-based, human. Conditions: Table 1b. How it is done:
as §1, §3

Series [1] concerns the target T1, Tdp1 (Homo sapiens, UniProt Q9NUW8). Put plainly: Tdp1 inhibition fluorescence assay. It is filed as biochemical. Conditions: compounds at 100 μM. How it is done: Tdp Inhibition. […] The compounds were tested at 100 μM concentration. […] Fluorescence assay. […] Tdp1 solution (20 μL/well, 0.02 μL purified Tdp1 (100 nM) in 10 mM Tris-HCl, pH 7.5, 50 mM KCL, I mM EDTA, 1 mM DTT) was dispensed into wells of a white 384-well plate (NEST). The tested compound solution in DMSO (5 μL) was pinned into assay plates and incubated at room temperature for 30 min. […] Tdp percentage inhibition of the tested compounds was calculated by comparing the rate of increase in fluorescence throughout time for the compound-treated wells to that of DMSO control wells.

Another series deals with T2, Top1 (Homo sapiens, UniProt P11387).
T2 sequence (P11387 1-765): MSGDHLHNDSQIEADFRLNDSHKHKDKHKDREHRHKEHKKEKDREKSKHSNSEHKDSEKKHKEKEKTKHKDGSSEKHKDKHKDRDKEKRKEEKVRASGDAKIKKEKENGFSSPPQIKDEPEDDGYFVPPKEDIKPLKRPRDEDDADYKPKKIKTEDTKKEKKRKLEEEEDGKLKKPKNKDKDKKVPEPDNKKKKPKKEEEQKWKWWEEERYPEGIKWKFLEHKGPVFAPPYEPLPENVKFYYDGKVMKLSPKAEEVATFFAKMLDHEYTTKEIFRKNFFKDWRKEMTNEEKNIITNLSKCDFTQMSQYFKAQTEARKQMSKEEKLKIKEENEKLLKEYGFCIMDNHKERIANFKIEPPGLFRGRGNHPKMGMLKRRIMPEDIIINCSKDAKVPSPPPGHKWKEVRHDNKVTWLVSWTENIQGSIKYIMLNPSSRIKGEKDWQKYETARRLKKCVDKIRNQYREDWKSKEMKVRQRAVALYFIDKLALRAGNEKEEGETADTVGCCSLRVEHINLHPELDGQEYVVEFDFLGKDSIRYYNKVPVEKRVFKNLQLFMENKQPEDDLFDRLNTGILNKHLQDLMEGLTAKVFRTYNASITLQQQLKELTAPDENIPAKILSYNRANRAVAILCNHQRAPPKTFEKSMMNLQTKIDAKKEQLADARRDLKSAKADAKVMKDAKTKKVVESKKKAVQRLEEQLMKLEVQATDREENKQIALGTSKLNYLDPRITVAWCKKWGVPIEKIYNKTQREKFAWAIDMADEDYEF
Nature of the series: Top1-mediated DNA cleavage assay. Format: biochemical.

A further series deals with F10T dsDNA. Put plainly: FRET melting assay. Conditions: compounds at 2 μM. It is filed as binding. How it is done:
It was reported that nitidine can intercalate into double-stranded DNA (dsDNA) and inhibit Top1. […] The DNA intercalator 49 was used as positive control.
FRET melting assay was carried out on a real-time PCR apparatus as the following methods. […] In the experiment, the annealed oligonucleotide (final concentration of 0.4 μM) were incubated with the tested compounds (2 μM) in a total reaction volume of Tris-HCl buffer (10 mM, pH 7.4) containing 60 mM KCl at 37° C. for 0.5 h. Fluorescence melting curves were determined with a Roche LightCycler 2 real-time PCR machine with excitation at 470 nm and detection at 530 nm.

A further series has as its system HCT116 cells. Nature of the series: Flow cytometry apoptosis assay. It is filed as cell-based, human. To be noted: HCT116, 24 h, 0.5, 1 and 2 μM. The procedure:
To evaluate the induction of apoptosis by 50, flow cytometry assays were performed in HCT116 cells.
The stained cells were analyzed by using flow cytometry (BD, FACSCalibur, USA) within I h. The experiments were repeated three times independently.
A general note: A flow cytometer gives signals particle by particle.

The next series deals with pBR322 DNA. Nature of the series: Top1-mediated unwinding assay. It is filed as biochemical. To be noted: supercoiled or relaxed pBR322 DNA, excess Top1, 19a up to 9 μM. The procedure:
The binding of classical DNA intercalators between the base pair of circular DNA produce Top1-mediated unwinding effect, thereby antagonizing Top1-mediated DNA relaxation. […]. […] […]. The reaction mixture (20 μL) contained supercoiled or relaxed pBR322 DNA (0.5 μg), tested compounds and excess Top1 (10 units) in relaxing buffer (10 mM Tris, pH 7.5, 0.1 mM EDTA, 5 mM MgCl2, 50 mM KCl, 1 mM DTT, 15 μg/mL acetylated BSA). The DNA was incubated with the tested compounds at room temperature for 10 min prior to the addition of Top1. After being incubated for 30 min at 37° C., the reaction was terminated by the addition of […] loading buffer. The results were analyzed using 1% agarose gel in TAE buffer at 5 V/cm. The gel was stained with gel red and visualized with a UV transilluminator.

For series [2], the system named is γH2AX foci in HCT116 cells. Nature of the series: γH2AX detection by immunofluorescence. Format: cell-based, human. Conditions: HCT116, 1 μM, 3 h. How it is done:
To evaluate the DNA damaging effect of 50 in cancer cells, γH2AX foci were assessed by immunofluorescence microscopy in human […] HCT116 cells. After incubation with the compounds for 3 h, the HCT116 cells were stained with γH2AX antibodies.
HCT116 cells (2×10^4 cells/mL) were grown in culture medium and treated with compounds for 3 h at 37° C. […] Cells were permeabilized with 0.5% Triton X-100 in PBS at 0° C. for 30 min. Dish was blocked with 5% goat serum/PBS at 37° C. for 3 h. […] The dishes were again washed six times with blocking buffer. Digital images were recorded using an LSM710 microscope (Zeiss, Germany) and analyzed with ZEN software.

A short description of series [3]: Pharmacokinetic study in rat. Conditions: SD rats, i.g. 5 mg/kg. How it is done:
The SD rats were divided into two groups (n=3) and treated by intravenous injection (i.v.) at 1 mg/kg dose and intragastrical administration (i.g.) at 5 mg/kg dose, respectively.
A pharmacokinetic (PK) study in vivo of 50 was performed in Sprague-Dawley (SD) rats. The SD rats were randomly divided into two groups […] and treated by intravenous injection (iv) at 1 mg/kg dose or an intragastrical administration (ig) at 5 mg/kg dose, respectively. Plasma samples were collected postdosing and the concentration of 50 was measured.
Plasma samples (100 μL) were obtained after centrifugation for 10 min at 3000 rpm and stored at −20° C. until used for analysis. The plasma was detected through LC-MS-MS.

A further series has as its system HCT116 xenograft. Put plainly: In vivo antitumor activity, HCT116 xenograft. Conditions: HCT116 xenograft.
The target of series [4] is T1, Tdp1. To be noted: reported in the background; cited from earlier work.
Series [5] concerns the target T3, Top1-DNA covalent cleavage complexes in HCT116 cells (Homo sapiens, UniProt P11387).
T3 construct: endogenous in cells; host or cells: HCT116 (human colon cancer)
Put plainly: Immunocomplex of enzyme to DNA (ICE) assay. It is filed as cell-based. Conditions: HCT116, 25, 50 and 100 μM.

Another series has as its system MCF-7. Put plainly: MTT cytotoxicity assay, MCF-7. Conditions: Homo sapiens, MCF7, 72 h, Table 7, read-out: GI50 ± SC (μM) MCF-7. It is filed as cell-based, human. The procedure:
as §2, §3

Where [6] appears, read: 72 h, Table 1b, read-out: GI50 (μM) A549.
[7] abbreviates: semi-quantitative score relative to CPT (1) at 1 μM, tested at 0.1-100 μM.

T1 sequence (Q9NUW8 whole entry): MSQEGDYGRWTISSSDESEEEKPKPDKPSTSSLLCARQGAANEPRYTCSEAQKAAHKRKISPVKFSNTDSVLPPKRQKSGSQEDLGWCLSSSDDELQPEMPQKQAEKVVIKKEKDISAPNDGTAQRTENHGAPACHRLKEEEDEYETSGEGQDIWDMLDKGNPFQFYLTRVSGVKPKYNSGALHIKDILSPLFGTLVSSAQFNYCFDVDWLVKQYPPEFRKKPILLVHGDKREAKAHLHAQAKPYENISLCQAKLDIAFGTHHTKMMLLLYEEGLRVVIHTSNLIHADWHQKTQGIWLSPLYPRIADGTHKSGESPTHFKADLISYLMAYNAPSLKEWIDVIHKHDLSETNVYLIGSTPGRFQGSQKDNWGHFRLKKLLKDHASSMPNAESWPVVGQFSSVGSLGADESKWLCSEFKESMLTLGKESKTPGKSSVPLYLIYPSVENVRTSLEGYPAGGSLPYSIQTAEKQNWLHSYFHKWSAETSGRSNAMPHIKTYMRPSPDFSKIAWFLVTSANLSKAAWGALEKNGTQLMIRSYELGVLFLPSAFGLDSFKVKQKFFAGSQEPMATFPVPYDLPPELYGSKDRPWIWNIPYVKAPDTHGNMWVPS

As to `COc1cc2c(=O)n(C)c3c4cc5c(cc4ccc3c2cc1OC)OCO5` [Compound 6, oxynitidine, reference compound], the GI50 in the series with DU145 was 64.2 ± 10.9 µM; with CCRF-CEM, 26.5 ± 5.41 µM; in the series with HCT116, 74.8 ± 4.36 µM; with A549 (setting [6]) it was 39.4 ± 26.2 µM; with Huh7 (72 h) it was more than 100 µM.
For `COc1cc2c(cc1OC)-c1ccc3cc4c(cc3c1N(CCN(C)C)C2)OCO4` [Compound 26a, 2-(2,3-Dimethoxy-[1,3]dioxolo[4′,5′:4,5]benzo[1,2-c]phenanthridin-12(131)-yl)-N,N-dimethylethan-1-amine], the TDP1 inhibition on Tdp1 [1] was 0%. Further, the GI50 with DU145 stood at 1.93 ± 0.41 µM; in the series on CCRF-CEM, 0.95 ± 0.14 µM; with HCT116 it was 7.36 ± 3.55 µM; with A549 (setting [6]) it was 6.68 ± 1.93 µM; with Huh7 (72 h) it was 7.78 ± 2.91 µM. Also, in the series on CCRF-CEM, the “GI50 (μM) CCRF-CEM” value is recorded as “submicromolar concentration”. For the same molecule, the TOP1 inhibition result on Top1 (setting [7]) is “+ (+, between 20% and 50% activity)”. Further, the “ΔTm (°C.) F10T” value in the series with F10T dsDNA is 1.0 °C.
For `COc1cc2c(cc1OC)-c1ccc3cc4c(cc3c1N(CCN1CCCC1)C2)OCO4` [Compound 28a, 2,3-Dimethoxy-12-(2-(pyrrolidin-1-yl)ethyl)-12,13-dihydro-[1,3]dioxolo[4′,5′:4,5]benzo[1,2-c]phenanthrdine], the TDP1 inhibition on Tdp1 [1] came to 0%. In addition, the GI50 in the series with DU145 was found to be 2.04 ± 0.41 µM; in the series on CCRF-CEM, 1.25 ± 0.18 µM; in the series with HCT116 it was 4.25 ± 3.11 µM; with A549 (setting [6]), 6.59 ± 1.29 µM; in the series on Huh7 (72 h) it was 8.07 ± 1.3 µM.
`COc1cc2c(=O)n(CCN(C)C)c3c4cc5c(cc4ccc3c2cc1OC)OCO5` [Compound 19a, 12-(2-(Dimethylamino)ethyl)-2,3-dimethoxy-[1,3]dioxolo[4′,5′:4,5]benzo[1,2-c]phenanthridin-13(12H)-one]: in the series with HCT116 cells, the induction of apoptosis result is reported as “significantly induce HCT116 cells apoptosis in a dose-dependent manner”. Further, in the series on pBR322 DNA, the Top1-mediated unwinding effect entry was “no Top1-mediated unwinding effect”. In series [2], the γH2AX foci entry is “γH2AX foci were induced”. Moreover, the “Tmax” value in series [3] was found to be 1.17 ± 0.76 h. Further, the results for the body weight result in the series on HCT116 xenograft (5 mg/kg i.p. daily) and in the series on HCT116 xenograft (10 mg/kg i.p. daily) were “no obvious body loss” and “Body weight loss was found”, respectively. The tumor volume result with HCT116 xenograft (i.p. once every day) was “significantly reduced tumor volume in a dose-dependent manner”.
Take `[Na+].[Na+].[Na+].[O]=[V]([O-])([O-])[O-]` [sodium orthovanadate]: the Tdp1 inhibition result at Tdp1 [4] is “inhibition only at millimolar concentration”.
Turning to `CC[C@@]1(O)C(=O)OCc2c1cc1n(c2=O)Cc2cc3ccccc3nc2-1` [Compound 1, camptothecin, reference compound], the GI50 with CCRF-CEM (Homo sapiens, CCRF-CEM) amounted to 0.007 ± 0.003 µM; in the series with MCF-7, 0.012 ± 0.002 µM; with A549 (Homo sapiens, A549, 72 h, Table 7, read-out: GI50 ± SC (μM) A-49), 0.099 ± 0.017 µM; in the series with Huh7 (Homo sapiens, Huh-7, 72 h), 0.099 ± 0.017 µM. Moreover, the “induction of cellular Top1cc” value in series [5] is recorded as “induced the formation of cellular TOP1 cc in a dose-dependent manner”. Also, the TOP1 inhibition entry on Top1 (graded relative to CPT at 1 μM, Table 7) was “++++”; at Top1 (setting [7]), “++++ (++++, equal activity)”.

A word on the GI50: it is the concentration at which growth is held to half of that of the control. The term Tmax denotes the time from dosing to the highest level.
